Results on two compounds are retold here after US12496355B2, “Method for treating a cancer and/or cancer metastasis” (NANO TARGETING & THERAPY BIOPHARMA INC., priority 2022, dated 2025).

Experiment [1] has as its system tumor angiogenesis on chicken embryo chorioallantoic membrane. Put plainly: Chorioallantoic membrane (CAM) tumor model for angiogenesis. Type of experiment: in vivo. As to conditions: administered on day 12, observed on days 14 and 16. How it is done:
To evaluate the effect of MSNs on tumor angiogenesis, chicken embryo chorioallantoic membrane (CAM) tumor model was used. The fertilized eggs were incubated in the incubator for 10 days, then a small window was opened in the eggshell and the cancer cells were implanted on the CAM membrane near the aorta. MSN or Doxorubicin (DOX) was administered on day 12 when the tumor was formed and the angiogenesis near the tumor was observed on days 14 and 16.

Experiment [2] relates to luciferase-expressing HCT-116 cells. Kind of experiment: Orthotopic colorectal cancer metastasis model, cells injected into cecum wall. The following applies: 40 mg/kg twice per week, 8 administrations.
Excerpt: 2×10^6 luciferase-expressing HCT-116 cells were directly injected into the wall of the cecum with surgery to establish the orthotopic colorectal cancer metastasis model, this model spontaneously produces highly metastatic tumors in adjacent intestinal tissues, peritoneum, and distance metastasis (spleen, kidney, liver, and diaphragm). […] The tumor growth and metastasis were observed by the IVIS system once a week and body weight was observed over the study period. To assess overall survival, animals were monitored up to the point of spontaneous death or approaching moribund status.

Entries after “also recorded” stand apart in the source; their conditions may differ.

Consider `COc1cccc2c1C(=O)c1c(O)c3c(c(O)c1C2=O)C[C@@](O)(C(=O)CO)C[C@@H]3O[C@H]1C[C@H](N)[C@H](O)[C@H](C)O1` [DOX, Doxorubicin], for which the “blood vessels near the tumor (angiogenesis)” value in experiment [1] is “blood vessels exhibited disintegration and decreased density”.

As to `CCc1c2c(nc3ccc(OC(=O)N4CCC(N5CCCCC5)CC4)cc13)-c1cc3c(c(=O)n1C2)COC(=O)[C@]3(O)CC` [IRI, irinotecan], the “primary tumor growth and metastases (IVIS bioluminescence)” value in experiment [2] was “slower tumor growth rate compared to the control group; also recorded: inefficient inhibition of tumor growth and metastases”.
